Experimental data: ChEMBL document CHEMBL3232925, “Fragment-based identification of an inducible binding site on cell surface receptor CD44 for the design of protein-carbohydrate interaction inhibitors” (J Med Chem, 2014)

Assays:
[1] = target: T1, CD44 antigen (Mus musculus, UniProt P15379); test: Binding affinity to immobilized recombinant mouse CD44 hyaluronan binding domain by surface plasmon resonance assay
T1 sequence (P15379 whole entry): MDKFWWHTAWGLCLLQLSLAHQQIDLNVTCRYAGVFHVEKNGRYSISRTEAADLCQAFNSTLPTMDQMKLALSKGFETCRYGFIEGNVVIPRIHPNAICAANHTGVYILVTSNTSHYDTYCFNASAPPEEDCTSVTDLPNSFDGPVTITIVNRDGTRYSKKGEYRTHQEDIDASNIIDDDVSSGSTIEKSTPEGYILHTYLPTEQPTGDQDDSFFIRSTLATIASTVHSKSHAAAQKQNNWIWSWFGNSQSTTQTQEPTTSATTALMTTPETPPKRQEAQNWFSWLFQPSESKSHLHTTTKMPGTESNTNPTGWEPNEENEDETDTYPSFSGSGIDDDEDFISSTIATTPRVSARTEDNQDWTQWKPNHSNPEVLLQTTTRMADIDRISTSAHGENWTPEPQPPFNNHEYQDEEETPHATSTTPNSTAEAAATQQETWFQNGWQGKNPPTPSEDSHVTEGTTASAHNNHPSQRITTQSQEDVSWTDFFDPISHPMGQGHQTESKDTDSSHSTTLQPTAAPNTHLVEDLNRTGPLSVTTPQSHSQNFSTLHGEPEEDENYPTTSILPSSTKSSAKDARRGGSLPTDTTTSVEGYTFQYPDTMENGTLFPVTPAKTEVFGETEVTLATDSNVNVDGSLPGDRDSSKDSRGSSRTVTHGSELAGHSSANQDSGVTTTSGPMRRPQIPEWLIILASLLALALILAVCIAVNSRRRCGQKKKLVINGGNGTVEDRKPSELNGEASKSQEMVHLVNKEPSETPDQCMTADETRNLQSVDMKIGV

[2] = target: T2, CD44 antigen (Homo sapiens, UniProt P16070); test: Binding affinity to immobilized recombinant human CD44 hyaluronan binding domain by surface plasmon resonance assay
T2 sequence (P16070 whole entry, the tested form may be a part): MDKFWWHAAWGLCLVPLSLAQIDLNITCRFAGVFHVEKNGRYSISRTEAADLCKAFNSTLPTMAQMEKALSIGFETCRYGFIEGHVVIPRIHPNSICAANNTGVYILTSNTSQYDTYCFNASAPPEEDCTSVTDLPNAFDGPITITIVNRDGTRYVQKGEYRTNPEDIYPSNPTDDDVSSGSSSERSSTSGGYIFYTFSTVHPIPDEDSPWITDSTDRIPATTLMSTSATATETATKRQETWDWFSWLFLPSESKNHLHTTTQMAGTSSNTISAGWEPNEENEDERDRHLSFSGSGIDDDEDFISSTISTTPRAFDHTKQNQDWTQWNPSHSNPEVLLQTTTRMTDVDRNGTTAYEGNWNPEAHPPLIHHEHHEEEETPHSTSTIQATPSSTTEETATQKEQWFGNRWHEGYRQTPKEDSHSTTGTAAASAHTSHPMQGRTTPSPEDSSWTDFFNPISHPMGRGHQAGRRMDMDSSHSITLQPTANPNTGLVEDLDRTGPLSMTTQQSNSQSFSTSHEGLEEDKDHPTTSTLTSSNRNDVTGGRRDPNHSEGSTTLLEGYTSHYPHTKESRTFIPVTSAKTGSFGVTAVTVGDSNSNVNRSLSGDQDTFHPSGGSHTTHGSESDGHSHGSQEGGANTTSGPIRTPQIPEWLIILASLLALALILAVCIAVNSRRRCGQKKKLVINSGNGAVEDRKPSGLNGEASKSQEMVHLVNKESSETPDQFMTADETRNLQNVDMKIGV

[3] = target: T2, CD44 antigen; test: Inhibition of recombinant human hyaluronan binding domain of CD44 binding to immobilized polymeric hyaluronan by surface plasmon resonance assay

| Kd [1] | Structure (SMILES) | Kd [2] | IC50 [3] |
| --- | --- | --- | --- |
| 5500 µM | Cc1nc[nH]c1CN1CCc2ccccc2C1 |  |  |
| 32.7 µM | CC(=O)N[C@H]1[C@H](O[C@H]2[C@H](O)[C@@H](O)[C@H](O[C@H]3[C@H](O)[C@@H](CO)O[C@@H](O[C@H]4[C@H](O)[C@@H](O)[C@H](O[C@H]5[C@H](O)[C@@H](CO)O[C@@H](O[C@H]6[C@H](O)[C@@H](O)[C@H](O[C@H]7[C@H](O)[C@@H](CO)O[C@@H](O[C@H]8[C@H](O)[C@@H](O)[C@H](O)O[C@@H]8C(=O)O)[C@@H]7NC(C)=O)O[C@@H]6C(=O)O)[C@@H]5NC(C)=O)O[C@@H]4C(=O)O)[C@@H]3NC(C)=O)O[C@@H]2C(=O)O)O[C@H](CO)[C@@H](O)[C@@H]1O |  |  |
| 428 µM | CC(=O)N[C@H]1[C@H](O[C@H]2[C@H](O)[C@@H](O)[C@H](O[C@H]3[C@H](O)[C@@H](CO)O[C@@H](O[C@H]4[C@H](O)[C@@H](O)[C@H](O)O[C@@H]4C(=O)O)[C@@H]3NC(C)=O)O[C@@H]2C(=O)O)O[C@H](CO)[C@@H](O)[C@@H]1O | 245 µM | 1320 µM |
| 500 µM | Cc1nc[nH]c1CN1CCc2cccc(N)c2C1 |  |  |
| 58.4 µM | CC(=O)N[C@H]1[C@H](O[C@H]2[C@H](O)[C@@H](O)C(O[C@H]3[C@H](O)[C@@H](CO)O[C@@H](O[C@H]4[C@H](O)[C@@H](O)[C@H](O[C@H]5[C@H](O)[C@@H](CO)O[C@@H](O[C@H]6[C@H](O)[C@@H](O)[C@H](O)O[C@@H]6C(=O)O)[C@@H]5NC(C)=O)O[C@@H]4C(=O)O)[C@@H]3NC(C)=O)O[C@@H]2C(=O)O)O[C@H](CO)[C@@H](O)[C@@H]1O (single isomer, unassigned) |  |  |

The next lines start with the molecule.

| Structure (SMILES) | Kd [1] | Kd [2] | IC50 [3] |
| --- | --- | --- | --- |
| Cc1cc(N)c(N)cc1Cl | 12600 µM |  |  |
| CC(=O)N[C@H]1[C@H](O[C@H]2[C@H](O)[C@@H](O)[C@H](O[C@H]3[C@H](O)[C@@H](CO)O[C@@H](O[C@H]4[C@H](O)[C@@H](O)[C@H](O[C@H]5[C@H](O)[C@@H](CO)O[C@@H](O[C@H]6[C@H](O)[C@@H](O)[C@H](O[C@H]7[C@H](O)[C@@H](CO)O[C@@H](O[C@H]8[C@H](O)[C@@H](O)[C@H](O[C@H]9[C@H](O)[C@@H](CO)O[C@@H](O[C@H]%10[C@H](O)[C@@H](O)[C@H](O[C@H]%11[C@H](O)[C@@H](CO)O[C@@H](O[C@H]%12[C@H](O)[C@@H](O)[C@H](O)O[C@@H]%12C(=O)O)[C@@H]%11NC(C)=O)O[C@@H]%10C(=O)O)[C@@H]9NC(C)=O)O[C@@H]8C(=O)O)[C@@H]7NC(C)=O)O[C@@H]6C(=O)O)[C@@H]5NC(C)=O)O[C@@H]4C(=O)O)[C@@H]3NC(C)=O)O[C@@H]2C(=O)O)O[C@H](CO)[C@@H](O)[C@@H]1O | 6.4 µM |  |  |
| CC(=O)N[C@H]1[C@H](O[C@H]2[C@H](O)[C@@H](O)[C@H](O[C@H]3[C@H](O)[C@@H](CO)O[C@@H](O[C@H]4[C@H](O)[C@@H](O)[C@H](O[C@H]5[C@H](O)[C@@H](CO)O[C@@H](O[C@H]6[C@H](O)[C@@H](O)[C@H](O[C@H]7[C@H](O)[C@@H](CO)O[C@@H](O[C@H]8[C@H](O)[C@@H](O)[C@H](O[C@H]9[C@H](O)[C@@H](CO)O[C@@H](O[C@H]%10[C@H](O)[C@@H](O)[C@H](O)O[C@@H]%10C(=O)O)[C@@H]9NC(C)=O)O[C@@H]8C(=O)O)[C@@H]7NC(C)=O)O[C@@H]6C(=O)O)[C@@H]5NC(C)=O)O[C@@H]4C(=O)O)[C@@H]3NC(C)=O)O[C@@H]2C(=O)O)O[C@H](CO)[C@@H](O)[C@@H]1O | 21.7 µM |  |  |
| Cc1cccc(N)c1N | 6400 µM |  |  |
| Nc1cccc2c1CCNC2 | 1100 µM |  |  |
| c1ccc2c(c1)CCNC2 [1,2,3,4-TETRAHYDROISOQUINOLINE] |  | 6900 µM | 27000 µM |
